Literature values as cited in patent US10828414B2, “Magnetic filtration devices and methods related thereto” (The Regents of the University of California, priority 2015, dated 2020).

Conditions: IAC, regardless of infused dose

first pass hepatic clearance: 50-70%
Structure (SMILES): COc1cccc2c1C(=O)c1c(O)c3c(c(O)c1C2=O)C[C@@](O)(C(=O)CO)C[C@@H]3O[C@H]1C[C@H](N)[C@H](O)[C@H](C)O1 [Dox, doxorubicin]
